Assay results as given in article PMC4424277, “Astrocytosis precedes amyloid plaque deposition in Alzheimer APPswe transgenic mouse brain: a correlative positron emission tomography and in vitro imaging study” (European Journal of Nuclear Medicine and Molecular Imaging, 2015).

Molecular target: T1, beta-amyloid (Aβ) (Homo sapiens, UniProt P05067)
T1 construct: gene APP; Aβ plaques (fibrillar deposits) in cortical homogenates of APPswe (Tg2576) mice expressing APP with the Swedish mutation
Test: radioligand saturation binding in APPswe mouse cortical homogenates; autoradiography

T1 sequence (P05067 18-770): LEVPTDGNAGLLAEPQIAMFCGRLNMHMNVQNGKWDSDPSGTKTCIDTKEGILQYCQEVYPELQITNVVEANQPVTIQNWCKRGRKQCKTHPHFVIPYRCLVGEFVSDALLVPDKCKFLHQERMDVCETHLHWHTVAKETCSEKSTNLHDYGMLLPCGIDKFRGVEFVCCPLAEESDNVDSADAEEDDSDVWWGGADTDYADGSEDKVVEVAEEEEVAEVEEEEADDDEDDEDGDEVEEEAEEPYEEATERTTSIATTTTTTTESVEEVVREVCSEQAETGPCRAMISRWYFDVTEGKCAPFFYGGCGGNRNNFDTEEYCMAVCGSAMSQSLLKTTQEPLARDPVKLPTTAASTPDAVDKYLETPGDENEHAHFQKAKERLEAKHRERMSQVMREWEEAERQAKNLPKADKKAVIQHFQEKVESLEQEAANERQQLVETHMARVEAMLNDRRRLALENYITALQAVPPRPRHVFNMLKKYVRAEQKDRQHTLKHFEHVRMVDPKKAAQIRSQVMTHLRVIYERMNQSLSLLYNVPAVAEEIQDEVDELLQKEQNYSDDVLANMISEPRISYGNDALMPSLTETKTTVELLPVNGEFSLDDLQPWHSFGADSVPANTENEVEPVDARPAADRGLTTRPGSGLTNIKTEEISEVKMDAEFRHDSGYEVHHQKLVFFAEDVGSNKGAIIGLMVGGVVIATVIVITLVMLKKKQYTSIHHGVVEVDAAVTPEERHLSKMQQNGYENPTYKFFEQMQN

**Q.** Which Kd does the source give for `CNc1ccc(-c2nc3ccc(O)cc3s2)cn1` [AZD2184] here?
**A.** 10.6 nM
